Experimental data from patent US20020152038A1, “Selection method for aroma substances” (priority 2000, published 2002).
Read-outs that look alike come from different tables or passages of the source.

Tests used:
[1] = Headspace above the lemonade, SPME, relative partition parameters; format: physicochemical
Procedure: (§1) The procedure is analogous in all examples.
The example reflects the taste impression which is perceived from via the olfactory epithelium, when enjoying a lemonade drink. The mixture of 39 odorants is incorporated into the above-mentioned lemonade drink (1) in an amount of 0.05%. 50 g of the lemonade drink are transferred to a 100 ml Erlenmeyer flask sealed with a septum and left to stand for 2 h at 35° C. with gentle stirring. The headspace above the lemonade is extracted using a SPME over 15 min. […] The analytical results are then used mathematically as described above.

[2] = according to COSMO-RS correlation
[3] = according to COSMO-RS correlation; remark: listed apart in the source
[4] = Headspace above the milkshake, SPME-GC, relative partition parameters; format: physicochemical
Procedure: as §1
The example reflects the taste impression which is perceived via the olfactory epithelium, when enjoying a milkshake. The milkshake is prepared as is generally customary. The mixture of 39 aroma substances is incorporated into the abovementioned milk product (1) in an amount of 0.2%. 50 g of this mixture are transferred to a 100 ml Erlenmeyer flask sealed with a septum and left to stand for 2 h at 35° C. with gentle stirring. The headspace above the mixture is extracted over 15 min using solid phase microextraction (SPME). The SPME needle is desorbed in a GC injector, and a gas chromatogram is recorded. […] The analytical results are then used mathematically as described above.

[5] = headspace vs lemonade, 0.05% odorant mixture, 2 h at 35° C., SPME 15 min
[6] = headspace vs milkshake, 0.2% aroma mixture, 2 h at 35° C., SPME 15 min

Activity (logarithmic partition parameter above lemonade) [1, 5]	Differences (Activity minus Prediction, lemonade) [2]	Differences (Activity minus Prediction, milkshake) [3]	Activity (logarithmic partition parameter above a milkshake) [4, 6]	Compound	Activity (logarithmic partition parameter above lemonade) [1]	Activity (logarithmic partition parameter above a milkshake) [4]
0.994	0.587	0.480	0.707	CC(=O)O[C@@H]1C[C@H]2CC[C@]1(C)C2(C)C (racemic) [Isobornyl acetate]	–	–
0.086	0.552	0.515	0.306	CC(=O)OCc1ccccc1 [Benzyl acetate]	–	–
−1.955	−0.783	−0.391	−0.819	OCc1ccccc1 [Benzyl alcohol]	–	–
−3.037	−0.340	−1.057	−3.313	O=C(OCc1ccccc1)c1ccccc1O [Benzyl salicylate]	–	–
0.485	−0.189	−0.082	1.029	C=C1CCC2CC1C2(C)C (stereo not drawn) [Beta-Pinene]	–	–
0.465	−0.226	−0.169	0.985	C=C1C2CCC(C2)C1(C)C (centres unmarked) [Camphene]	–	–
−0.895	0.196	−0.025	−1.077	C[C@@H]1CC[C@H]2C(C)(C)[C@H]3C[C@@]12CC[C@@]3(C)O [Cedrol]	–	–
–	–	–	–	CC(=O)O[C@]1(C)CC[C@@]23C[C@@H]1C(C)(C)[C@@H]2CC[C@H]3C [Cedryl acetate]	−1.653	−1.690
0.044	0.207	0.138	0.199	CC(C)=CCCC(C)CCO (centres unmarked) [Citronellol]	–	–
–	0.162	0.244	–	O=c1ccc2ccccc2o1 [Coumarin]	–	–
0.523	0.898	0.537	0.378	CC(=O)OC(C)(C)Cc1ccccc1 [DMBCA, dimethylbenzylcarbinyl acetate]	–	–
0.334	0.513	0.135	0.432	C=CC(C)CCCC(C)(C)O (centres unmarked) [Dihydromyrcenol]	–	–
−0.841	0.454	0.528	−0.557	C=CCc1ccc(O)c(OC)c1 [Eugenol]	–	–
−0.413	–	–	−0.053	CC(C)=CCC/C(C)=C/CO [Geraniol]	–	–
−1.911	−0.710	−0.674	−1.949	CCCCCC/C(C=O)=C\c1ccccc1 [Hexylcinnamaldehyde, α]	–	–
−1.879	−1.868	−1.369	−1.679	CC(CC=O)CCCC(C)(C)O (centres unmarked) [Hydroxycitronellal]	–	–
0.024	−0.060	0.158	−0.001	CC(=O)/C=C/C1C(C)=CCCC1(C)C (stereo not drawn) [Ionone, α, Ionone, alpha]	–	–
−0.061	0.072	0.047	−0.154	CC(=O)/C=C/C1=C(C)CCCC1(C)C [Ionone, β, Ionone, beta]	–	–
−0.462	0.201	0.215	−0.528	CC(C)CCOC(=O)c1ccccc1O [Isoamyl salicylate]	–	–
−0.656	0.074	0.135	−0.690	CC(C=O)Cc1ccc(C(C)(C)C)cc1 (centres unmarked) [Lilial]	–	–
0.925	0.072	−0.090	1.088	C=C(C)[C@H]1CC=C(C)CC1 [Limonene D]	–	–
0.141	0.246	−0.231	0.225	C=CC(C)(O)CCC=C(C)C (centres unmarked) [Linalool]	–	–
0.001	0.272	0.225	0.188	OCCc1ccccc1 [PEA, phenylethyl alcohol]	–	–
0.151	−1.038	−0.864	0.413	CC(=O)OCC=C(C)C [Prenyl acetate]	–	–
0.312	0.641	0.554	0.402	CC(=O)OC(C)c1ccccc1 (centres unmarked) [Styrolyl acetate]	–	–
–	–	–	–	CC(=O)OC(C)(C)C1CC=C(C)CC1 (centres unmarked) [Terpinyl acetate]	0.644	0.418
0.363	−0.110	0.067	1.078	CC1=CCC2CC1C2(C)C (stereo not drawn) [alpha-Pinene]	–	–
1.032	0.411	−0.004	1.064	CC1=CCC(C(C)C)=CC1 [gamma-Terpinene]	–	–
–	–	–	–	Caryophyllene	0.827	1.132

Compound	Activity (logarithmic partition parameter above lemonade) [1, 5]	Differences (Activity minus Prediction, lemonade) [2]	Differences (Activity minus Prediction, milkshake) [3]	Activity (logarithmic partition parameter above a milkshake) [4, 6]	Activity (logarithmic partition parameter above lemonade) [1]	Activity (logarithmic partition parameter above a milkshake) [4]
CCOC(=O)c1ccccc1C(=O)OCC [Diethyl phthalate]	−1.895	−1.693	−0.553	−1.607	–	–
